Data on one compound can be found in US20250255941A1 (priority 2021, published 2025).

Each structure is given as a SMILES string. Several values for one entry are separate records, joined by “and”; a condition that tells them apart may be missing. Equal values may be shown once.

One data set relates to prostaglandin F2a. The class given is cell-based. The settings on record: 5 μM.
Another data set relates to Keratinocytes. The settings on record: 5 μM.

Turning to `CS(=O)(=O)Nc1ccc([N+](=O)[O-])cc1OC1CCCCC1` [NS-398], in the data set with prostaglandin F2a, the “Absorbance value (405 nm), individual measurements (n=4)” value is 0.6170 and 0.6000 and 0.6110 and 0.6220; the “PGF2alpha (pg/mL), individual measurements (n=4)” value was 70.9 pg/mL and 86.8 pg/mL and 76.1 pg/mL and 66.8 pg/mL; the “PGF2alpha (pg/mL)/MTT, Mean” value was 86.3 (pg/mL)/MTT; the “PGF2alpha (pg/mL)/MTT, individual measurements (n=4)” value is 81.5 (pg/mL)/MTT and 101.6 (pg/mL)/MTT and 86.6 (pg/mL)/MTT and 75.4 (pg/mL)/MTT. The “prostaglandin F2a expression, % of control” value in the data set on prostaglandin F2a is on record as 9.3%. In the data set on Keratinocytes, the “Cytotoxicity test (MTT), % of control” value came out at 102.0% and the “Cytotoxicity test (MTT), Mean” value turned out to be 0.8720.
